Results published in ChEMBL document CHEMBL1137683, “Synthesis and in vitro cysticidal activity of new benzimidazole derivatives” (Eur J Med Chem, 2009).

Key:
Taenia crassiceps [1] = experiment: Antiparasitic activity against Taenia crassiceps cysts ORF strain assessed as cysts mortality at 0.28 uM after 11 days by Trypan blue exclusion test; type: functional
Taenia crassiceps [2] = experiment: Antiparasitic activity against Taenia crassiceps cysts ORF strain assessed as cysts mortality at 1.70 uM after 11 days by Trypan blue exclusion test; type: functional
Taenia crassiceps [3] = experiment: Antiparasitic activity against Taenia crassiceps cysts WFU strain assessed as cysts mortality at 0.28 uM after 11 days by Trypan blue exclusion test; type: functional
Taenia crassiceps [4] = experiment: Antiparasitic activity against Taenia crassiceps cysts WFU strain assessed as cysts mortality at 1.70 uM after 11 days by Trypan blue exclusion test; type: functional
[5] = Octanol-water partition coefficient, log P of the compound; type: physicochemical

Row | SMILES | Activity (Taenia crassiceps [1]) | Activity (Taenia crassiceps [2]) | Activity (Taenia crassiceps [3]) | Activity (Taenia crassiceps [4]) | logP [5]
1 | CSc1nc2cc(C(=O)N3CCC(C)CC3)ccc2[nH]1 | 0% | 0% | – | – | –
2 | COC(=O)Nc1nc2cc(C(=O)OCc3ccc([N+](=O)[O-])cc3)ccc2[nH]1 | 41% | 68% | 22.6% | 26% | 3.12
3 | CCCSc1ccc2[nH]c(N(C)C(=O)OC)nc2c1 | 0% | 0% | – | – | –
4 | CSc1nc2cc(C(=O)N3CCN(C)CC3)ccc2[nH]1 | 0% | 0% | – | – | –
5 | CSc1nc2cc(C(=O)N3CCC(C)CC3)c(Cl)cc2[nH]1 | 0% | 0% | – | – | –
6 | CSc1nc2cc(C(=O)N3CCCCC3)ccc2[nH]1 | 0% | 0% | – | – | –
7 | CCC[S+]([O-])c1ccc2[nH]c(NC(=O)OC)nc2c1 (stereo not given) [ALBENDAZOLE OXIDE] | 46% | 88% | 25% | 35% | 1.54
8 | CNC(=O)c1ccc2[nH]c(NC(=O)OC)nc2c1 | 0% | 0% | – | – | 0.68
9 | COC(=O)Nc1nc2cc(Oc3cccc4ccccc34)c(Cl)cc2[nH]1 | – | – | – | – | 3.56
10 | CCCSc1ccc2c(c1)nc(NC(=O)OC)n2C | 0% | 0% | – | – | –
11 | CSc1nc2cc(C(=O)N3CCCCC3)c(Cl)cc2[nH]1 | 0% | 0% | – | – | –
12 | CCCSc1ccc2nc(NC(=O)OC)n(C)c2c1 | 0% | 0% | – | – | –
13 | COC(=O)Nc1nc2cc(Cl)ccc2[nH]1 | 15% | 23% | 5% | 8% | 2.09
14 | COC(=O)Nc1nc2cc(C(=O)N3CCCCC3)ccc2[nH]1 | 37% | 62% | 9.3% | 16.7% | 1.65
